The subject of experiment [1] is Canine cardiac lipases. Nature of the experiment: Myocardial Lipase Assay. The class given is biochemical. The following applies: 100 μM compound, 3.0% DMSO, triolein emulsion, pH 6.8, tested in duplicate. The protocol: All compounds were dissolved in DMSO (final concentration 3.0%) and tested in duplicate at a concentration of 100 μm. Canine cardiac lipases were obtained by extracting washed heart membranes with buffer plus heparin and a small amount of Triton X-100 detergent. Because these enzymes are only active at an oil-water interface, the enzyme reaction is run in an oil-water emulsion that contains triolein substrate, Tris buffer (50 mM, pH 6.8) and a small amount of bovine serum albumin (0.5%) added to stabilize the emulsion. A small amount of tritiated triolein was added to the unlabelled triolein substrate. Tritium-labelled oleic acid released by the lipases was extracted into hexane, separated from unreacted triolein and counted in a scintillation counter. Inhibitory agents reduce the amount of radioactivity appearing in the free fatty acid fraction isolated in the extraction procedure.

A further experiment deals with rat adipocyte lipolysis. Nature of the experiment: Rat Adipocyte Assay (epinephrine-stimulated lipolysis, glycerol release). The class given is cell-based. The conditions noted are these: epinephrine 3 μM plus methylisobutylxanthine 10 μM, 1 hour at 37° C.; for inhibition at 30 µM: 30 μM compound, read-out: Adipocyte % Inhib. at 30 μM; for IC50: read-out: Adipocyte I50; for inhibition at 200 µM: 200 μM compound, read-out: Adipocyte % Inhib. at 200 μM. The protocol:
Abdominal fat pads were removed from male rats weighing 200-250 grams and placed in Krebs-bicarbonate buffer gassed with 95% O2 /5% CO2. The fat pads were digested with collagenase for 1 hour at 37° C., washed twice with Krebs-bicarbonate buffer and distributed among a set of 20 ml plastic counting vials. Two such vials received only buffer and cells (4 ml) but no angonists or antagonists. The remaining vials received epinephrine (3 μM) plus the phosphodiesterase inhibitor methylisobutylxanthine (10 μM). Test compounds were dissolved in DMSO or water to a concentration of 20 mM or 40 μl was added to the buffer plus cells in the counting vials. The final compound concentration for routine screening was 200 μM (final concentration of DMSO=1%).
The cells were incubated for 1 hour at 37° C. under 95% O2 /5% CO2 atmosphere. The incubation was stopped by placing the vials in crushed ice. The cells and medium were transferred to test tubes, centrifuged and the cell layer removed by aspiration. The aqueous phase was assayed for glycerol using the enzyme glycerol dehydrogenase.
The glycerol dehydrogenase assay for glycerol depends on the enzyme catalyzed conversion of glycerol to glyceraldehyde and NAD to NADH. The assay can detect as little as 5-10 nanomoles of glycerol. The aqueous phase, following removal of cells, usually contained about 50 to 80 nanomoles of glycerol per 300 μl of assayed sample if no inhibitory activity was present. Samples from the control tubes (no agonist) usually contained 0-5 nanomoles of glycerol per 300 μl of sample.

Experiment [2] concerns the target Canine cardiac lipases. Briefly: Myocardial Lipase Assay. The class given is biochemical. The following applies: triolein emulsion, pH 6.8; read-out: Lipase I50.

Turning to `COc1ccc(NC(=O)Oc2ccc3cccnc3c2)cc1` [Example 1], the “Lipase % Inh. at 100 μM” value in the experiment on Canine cardiac lipases [1] is reported as 60%. In addition, the inhibition at 30 µM with rat adipocyte lipolysis turned out to be 0%.
`COc1ccc(NC(=O)Oc2ccc3ncccc3c2)cc1` [Example 2, 6-quinolyl-4-methoxy carbanilate]: the “Lipase % Inh. at 100 μM” value in the experiment on Canine cardiac lipases [1] amounted to 64%. Besides, the inhibition at 30 µM in the experiment with rat adipocyte lipolysis stood at 8%.
For the compound `COc1ccc(NC(=O)Oc2cccc3ncccc23)cc1` [Example 3, 5-quinolyl-4-methoxy carbanilate], the “Lipase % Inh. at 100 μM” value in the experiment on Canine cardiac lipases [1] is 63%. Also, the inhibition at 30 µM in the experiment on rat adipocyte lipolysis was determined as 1%.
As to `COc1ccccc1NC(=O)Oc1ccc2cccnc2c1` [Example 4, 7-quinolyl-2-methoxy carbanilate], the IC50 in the experiment on rat adipocyte lipolysis came to 80 µM; at Canine cardiac lipases [2], 48 µM.
On to `COc1ccccc1NC(=O)Oc1ccc2ncccc2c1` [Example 5, 6-quinolyl-2-methoxy carbanilate], for which the IC50 in the experiment with rat adipocyte lipolysis was 30 µM; on Canine cardiac lipases [2] it was 42 µM.
Take `COc1ccccc1NC(=O)Oc1cccc2ncccc12` [Example 6, 5-quinolyl-2-methoxy carbanilate]: the inhibition at 200 µM in the experiment with rat adipocyte lipolysis came out at 31%. At Canine cardiac lipases [2], the IC50 amounted to 48 µM.
With `COc1cccc(NC(=O)Oc2ccc3cccnc3c2)c1` [Example 7, 7-quinolyl-3-methoxy carbanilate], the “Lipase % Inh. at 100 μM” value with Canine cardiac lipases [1] worked out at 52%. Moreover, the inhibition at 200 µM with rat adipocyte lipolysis is 25%.
In the same order, the values of `CCOC(=O)c1ccc(NC(=O)Oc2ccc3cccnc3c2)cc1` [Example 8, 7-quinolyl-4-carbethoxy carbanilate] are 46% and 18%.
As to `O=C(Nc1ccccc1Cl)Oc1ccc2cccnc2c1` [Example 9, 7-quinolyl-2-chloro carbanilate], the “Lipase % Inh. at 100 μM” value with Canine cardiac lipases [1] is recorded as 6%.
For `Cc1ccccc1NC(=O)Oc1ccc2cccnc2c1` [Example 10, 7-quinolyl-2-methyl carbanilate], in the experiment on Canine cardiac lipases [1], the “Lipase % Inh. at 100 μM” value is on record as 45%. Moreover, the inhibition at 200 µM with rat adipocyte lipolysis stood at 20%.
Take `O=C(Nc1ccccc1C(F)(F)F)Oc1ccc2cccnc2c1` [Example 11, 7-quinolyl-2-trifluoromethyl carbanilate]: the “Lipase % Inh. at 100 μM” value in the experiment on Canine cardiac lipases [1] is listed as 12%.
With `COc1ccc(CCNC(=O)Oc2ccc3cccnc3c2)cc1` [Example 12, 7-quinolyl-4-methoxy phenethyl carbamate], in the experiment on Canine cardiac lipases [1], the “Lipase % Inh. at 100 μM” value amounted to 97%. In addition, the inhibition at 100 µM in the experiment on rat adipocyte lipolysis (100 μM compound, read-out: Adipocyte % Inhib. at 100 μM) turned out to be 84%.
